What all share (test): Bliss excess, mean over the matrix (fraction); higher = more synergy
The test system of test [1] is OCI-AML2 (Acute Myeloid Leukemia). Summed up:
(§1)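 Bliss excess equals the observed combination effect minus the expected value EA + EB − EA·EB, where EA and EB are the effects of each agent alone. Combination Emax is the second-highest inhibition within the matrix. Inhibition was scaled from CellTiter-Glo 2.0 luminescence, with 0 set by vehicle wells and 1 by blank wells, after 72 hours of two-drug dosing of cells plated in 1536-well plates.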

The next test deals with NCI-H2595 (Mesothelioma). Summed up:
as §1

Test [2] has as its system TGBC24TKB (Biliary Tract Carcinoma). Summed up: as §1
Test [3] deals with MDA-MB-157 (Breast Carcinoma). The essentials: as §1
The next test concerns CAL-78 (Chondrosarcoma). The essentials: as §1
The subject of test [4] is CFPAC-1 (Pancreatic Carcinoma). The essentials:
as §1

The subject of a further test is SN12C (Kidney Carcinoma). The essentials: as §1
Test [5] has as its system SNU-C5 (Colorectal Carcinoma). Summed up:
as §1

Test [6] deals with SUIT-2 (Pancreatic Carcinoma). Summed up: as §1
The subject of test [7] is DMS-273 (Small Cell Lung Carcinoma). Summed up: as §1
In test [8] the test system is KM-H2 (Hodgkin's Lymphoma). The essentials:
as §1

For test [9], the system named is KARPAS-1106P (B-Cell Non-Hodgkin's Lymphoma). The essentials:
as §1

Test [10] concerns C3A (Hepatocellular Carcinoma). The essentials: as §1
Test [11] has as its system TE-5 (Esophageal Squamous Cell Carcinoma). Summed up:
as §1

In the next test the test system is DSH1 (Bladder Carcinoma). Summed up:
as §1

The subject of test [12] is 697 (B-Lymphoblastic Leukemia). The essentials:
as §1

Another test relates to NCI-H2369 (Mesothelioma). Summed up:
as §1

A further test has as its system ES7 (Ewing's Sarcoma). The essentials:
as §1

Test [13] relates to SW756 (Cervical Carcinoma). The essentials: as §1
The subject of the next test is SK-N-FI (Neuroblastoma). Summed up: as §1

For `NC1(C(=O)N[C@@H](CCO)c2ccc(Cl)cc2)CCN(c2ncnc3[nH]ccc23)CC1` [Capivasertib] + Cn1cnc2c(F)c(Nc3ccc(Br)cc3Cl)c(C(=O)NOCCO)cc21 [Selumetinib] (first compound max 10 µM, 7x7, partner max 10 µM), the Bliss excess was 0.0547 in test [1]; -0.0454 in the test with NCI-H2595 (Mesothelioma); 0.132 in [2]; -0.014 in test [3]; -0.0369 with CAL-78 (Chondrosarcoma); 0.0351 in [4]. Moreover, the Bliss excess in the test with SN12C (Kidney Carcinoma) was 0.0041; in [5], 0.0154; in test [6], -0.0181; in test [7] it was -0.003; in [8], -0.0084; in [9], 0.0759. The Bliss excess in [10] was -0.0208; in test [11], 0.0457; in the test on DSH1 (Bladder Carcinoma), 0.121; in test [12], -0.165; in the test with NCI-H2369 (Mesothelioma) it was -0.0292; in the test on ES7 (Ewing's Sarcoma) it was 0.0372. The Bliss excess is -0.0177 in test [13] and -0.0313 with SK-N-FI (Neuroblastoma).

For `C[C@@H](c1ccc2nccn2c1)n1nnc2ncc(-c3cnn(C)c3)nc21` [Savolitinib] + Cc1c2c(nn1C)CSCc1cc(n(C)n1)CSc1cc(c3ccccc3c1)OCCCc1c(C(=O)O)n(C)c3c-2c(Cl)ccc13 [AZD5991] (first compound max 1 µM, 7x7, partner max 1 µM), the Bliss excess in [1] was -0.0167; in the test on NCI-H2595 (Mesothelioma), -0.052; in test [2], -0.029; in test [3], -0.0501; in the test on CAL-78 (Chondrosarcoma), -0.117; in [4], -0.0875. The Bliss excess with SN12C (Kidney Carcinoma) is -0.0535; in test [5] it was -0.05; in test [6], -0.0224; in test [7], -0.0356; in [8], -0.0286; in [9] it was -0.0518. Besides, the Bliss excess is -0.0229 in [10]; -0.027 in [11]; 0.0335 in the test on DSH1 (Bladder Carcinoma); -0.0516 in test [12]; -0.0527 in the test on NCI-H2369 (Mesothelioma); -0.017 with ES7 (Ewing's Sarcoma). The results for the Bliss excess (in test [13]; with SK-N-FI (Neuroblastoma)) were -0.0692 and -0.0077, respectively.

Take `CCN(CCO)CCCOc1ccc2c(Nc3cc(CC(=O)Nc4cccc(F)c4)[nH]n3)ncnc2c1` [AZD2811] + C=CCn1c(=O)c2cnc(Nc3ccc(N4CCN(C)CC4)cc3)nc2n1-c1cccc(C(C)(C)O)n1 [AZD1775] (first compound max 1 µM, partner max 1 µM): the Bliss excess was 0.0077 in test [1]; -0.0509 in the test with NCI-H2595 (Mesothelioma); -0.0717 in test [2]; 0.0291 in test [3]; 0.0636 with CAL-78 (Chondrosarcoma); -0.0695 in test [4]. The Bliss excess was -0.0698 in the test with SN12C (Kidney Carcinoma); 0.0188 in [5]; -0.017 in test [6]; 0.0064 in test [7]; 0.0339 in [8]; -0.0241 in test [9]. Further, the Bliss excess in test [10] is -0.0279; in test [11], -0.076; in the test on DSH1 (Bladder Carcinoma), -0.0013; in [12], 0.0164; in the test on NCI-H2369 (Mesothelioma), -0.0434; in the test on ES7 (Ewing's Sarcoma), -0.0468. The Bliss excess in [13] is -0.01; with SK-N-FI (Neuroblastoma), -0.0452.

As for `C=CCn1c(=O)c2cnc(Nc3ccc(N4CCN(C)CC4)cc3)nc2n1-c1cccc(C(C)(C)O)n1` [AZD1775] + O=C(c1cc(Cc2n[nH]c(=O)c3ccccc23)ccc1F)N1CCN(C(=O)C2CC2)CC1 [Olaparib] (first compound max 1 µM, partner max 10 µM), the Bliss excess in test [1] is 0.0249; in the test with NCI-H2595 (Mesothelioma), -0.0218; in test [2], -0.0499; in test [3] it was -0.0379; in the test with CAL-78 (Chondrosarcoma) it was -0.0833; in test [4], -0.0585. Moreover, the Bliss excess in the test with SN12C (Kidney Carcinoma) is -0.0136; in test [5], -0.0485; in test [6] it was -0.0049; in [7], -0.0334; in test [8], 0.0084; in test [9] it was -0.0513. The Bliss excess was -0.0179 in [10]; -0.0488 in test [11]; -0.0534 in the test on DSH1 (Bladder Carcinoma); 0.0782 in test [12]; -0.084 with NCI-H2369 (Mesothelioma); -0.0453 with ES7 (Ewing's Sarcoma). Moreover, the Bliss excess in test [13] is -0.0416; in the test with SK-N-FI (Neuroblastoma) it was -0.0569.

Turning to `Cc1c2c(nn1C)CSCc1cc(n(C)n1)CSc1cc(c3ccccc3c1)OCCCc1c(C(=O)O)n(C)c3c-2c(Cl)ccc13` [AZD5991] + C[C@@H]1COCCN1C2=NC(=NC(=C2)C3(CC3)[S@](=N)(=O)C)C4=C5C=CNC5=NC=C4 [AZD6738] (first compound max 1 µM, 7x7, partner max 10 µM), the Bliss excess in [1] was 0.0168; in the test on NCI-H2595 (Mesothelioma), -0.0124; in test [2], -0.006; in test [3], -0.0076; in the test on CAL-78 (Chondrosarcoma) it was 0.0335; in [4], 0.0442. Besides, the Bliss excess in the test on SN12C (Kidney Carcinoma) is -0.0144; in test [5], -0.011; in test [6], -0.0025; in test [7], 0.0196; in test [8], 0.0236; in [9], 0.0182. For the same compound, the Bliss excess in test [10] is 0.0412; in test [11], -0.0294; in the test with DSH1 (Bladder Carcinoma), 0.0241; in [12] it was 0.0058; in the test on NCI-H2369 (Mesothelioma), 0.0442; with ES7 (Ewing's Sarcoma), 0.0521. Further, the Bliss excess is 0.02 in test [13] and -0.0554 with SK-N-FI (Neuroblastoma).

`Cc1c2c(nn1C)CSCc1cc(n(C)n1)CSc1cc(c3ccccc3c1)OCCCc1c(C(=O)O)n(C)c3c-2c(Cl)ccc13` [AZD5991] + CN(C)CCCOc1ccc(-c2ccc3ncc4c(c3c2)n(C2CCOCC2)c(=O)n4C)cn1 [AZD0156] (first compound max 1 µM, 7x7, partner max 1 µM): the Bliss excess is -0.0647 in [1]; -0.0082 in the test with NCI-H2595 (Mesothelioma); -0.0044 in test [2]; -0.0169 in test [3]; -0.0212 in the test on CAL-78 (Chondrosarcoma); 0.0066 in test [4]. Also, the Bliss excess was -0.0161 in the test on SN12C (Kidney Carcinoma); 0.0157 in test [5]; 0.0035 in [6]; 0.0401 in test [7]; -0.0139 in test [8]; -0.0352 in test [9]. The Bliss excess in test [10] was -0.0266; in test [11], -0.0081; in the test with DSH1 (Bladder Carcinoma) it was -0.013; in test [12], -0.0468; in the test on NCI-H2369 (Mesothelioma), 0.0002; with ES7 (Ewing's Sarcoma) it was 0.0036. In addition, the Bliss excess in test [13] was -0.0015; in the test on SK-N-FI (Neuroblastoma), -0.0036.

Regarding `CC(=O)c1c(C)c2cnc(Nc3ccc(N4CCNCC4)cn3)nc2n(C2CCCC2)c1=O` [Palbociclib] + CC1(C)CCC(CN2CCN(c3ccc(C(=O)NS(=O)(=O)c4ccc(NCC5CCOCC5)c([N+](=O)[O-])c4)c(Oc4cnc5[nH]ccc5c4)c3)CC2)=C(c2ccc(Cl)cc2)C1 [Venetoclax] (first compound max 10 µM, 7x7, partner max 1 µM), the Bliss excess was 0.0188 in test [1]; -0.0557 with NCI-H2595 (Mesothelioma); -0.0121 in test [2]; -0.0348 in [3]; -0.0333 in the test on CAL-78 (Chondrosarcoma); 0.015 in [4]. Besides, the Bliss excess was -0.0525 with SN12C (Kidney Carcinoma); -0.017 in [5]; -0.0454 in test [6]; -0.0263 in test [7]; -0.0011 in test [8]; -0.0424 in [9]. The Bliss excess is 0.0437 in [10]; -0.0558 in test [11]; -0.0361 with DSH1 (Bladder Carcinoma); -0.0738 in test [12]; -0.0543 with NCI-H2369 (Mesothelioma); 0.0277 with ES7 (Ewing's Sarcoma). In addition, the Bliss excess is -0.062 in [13] and 0.0104 in the test on SK-N-FI (Neuroblastoma).

Source of the values: the supplement of paper PMC11061612.
